Source: ChEMBL document CHEMBL1201862, “PubChem BioAssay data set” (2004)
Active and inactive are the calls of the source.

Tests used:
[1] = biological target: Mitochondrial peptide methionine sulfoxide reductase (Bos taurus, UniProt P54149); test: Absorbance-based biochemical high throughput dose response assay for activators of Methionine sulfoxide reductase A (MsrA).; type: functional
[2] = biological target: Tyrosyl-DNA phosphodiesterase 2 (Homo sapiens, UniProt O95551); test: human TDP2 enzyme inhibitors, dose response, biochemical, epi absorbance, IC50 (AID 743297)
SRSF protein kinase 1 = SRSF protein kinase 1 (Homo sapiens, UniProt Q96SB4); type: functional;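 also: measured as one member of a kinome-wide kinase profiling panel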
Chain of SRSF protein kinase 1 (Q96SB4 whole entry): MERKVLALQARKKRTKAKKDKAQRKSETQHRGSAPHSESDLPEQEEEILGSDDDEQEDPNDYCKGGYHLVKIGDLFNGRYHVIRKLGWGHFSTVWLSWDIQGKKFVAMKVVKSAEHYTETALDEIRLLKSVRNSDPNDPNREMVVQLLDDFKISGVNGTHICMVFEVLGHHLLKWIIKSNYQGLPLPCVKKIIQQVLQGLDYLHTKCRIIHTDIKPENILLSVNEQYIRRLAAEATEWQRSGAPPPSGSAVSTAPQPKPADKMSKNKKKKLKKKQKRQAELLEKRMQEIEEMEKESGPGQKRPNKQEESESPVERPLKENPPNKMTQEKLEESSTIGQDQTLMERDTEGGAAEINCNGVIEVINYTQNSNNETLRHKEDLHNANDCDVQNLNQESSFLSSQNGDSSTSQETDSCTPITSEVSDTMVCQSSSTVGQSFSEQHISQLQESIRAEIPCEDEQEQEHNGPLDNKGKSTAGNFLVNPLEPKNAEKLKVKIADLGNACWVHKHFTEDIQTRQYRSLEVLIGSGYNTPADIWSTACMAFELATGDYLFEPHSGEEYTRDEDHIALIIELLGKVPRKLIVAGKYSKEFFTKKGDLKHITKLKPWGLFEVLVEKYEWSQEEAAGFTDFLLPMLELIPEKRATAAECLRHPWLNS

[3] = biological target: Serine/threonine-protein kinase D3 (Homo sapiens, UniProt O94806); type: functional;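 also: determined within a kinase panel screen, with PRKCN as the panel member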
[4] = biological target: Tyrosine-protein kinase BTK (Homo sapiens, UniProt Q06187); type: functional
[5] = biological target: Tyrosine-protein kinase Lck (Homo sapiens, UniProt P06239); type: functional;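 also: lck was assayed as one member of a kinase panel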
[6] = biological target: Vascular endothelial growth factor receptor 3 (Homo sapiens, UniProt P35916); type: functional;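 also: value from a kinome-wide profiling panel, with FLT4 as the panel member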
[7] = biological target: Proto-oncogene tyrosine-protein kinase receptor Ret (Homo sapiens, UniProt P07949); type: functional;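 also: measured within a kinome-wide profiling panel, RET as the panel member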
[8] = biological target: Calcium/calmodulin-dependent protein kinase type 1 (Homo sapiens, UniProt Q14012); type: functional
Chain of Calcium/calmodulin-dependent protein kinase type 1 (Q14012 whole entry): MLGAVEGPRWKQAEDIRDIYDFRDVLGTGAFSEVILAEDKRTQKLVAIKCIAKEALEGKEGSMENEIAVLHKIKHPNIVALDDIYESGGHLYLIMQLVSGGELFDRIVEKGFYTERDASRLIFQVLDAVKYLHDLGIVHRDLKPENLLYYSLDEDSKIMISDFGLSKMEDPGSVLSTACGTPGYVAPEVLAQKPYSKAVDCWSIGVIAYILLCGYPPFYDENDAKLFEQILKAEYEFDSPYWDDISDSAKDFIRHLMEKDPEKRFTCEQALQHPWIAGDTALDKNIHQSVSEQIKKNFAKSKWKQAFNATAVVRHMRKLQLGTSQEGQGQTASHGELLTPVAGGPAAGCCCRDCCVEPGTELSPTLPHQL

[9] = biological target: Insulin-like growth factor 1 receptor (Homo sapiens, UniProt P08069); test: Navigating the Kinome. Panel member name: IGF1R; type: functional
Chain of Insulin-like growth factor 1 receptor (P08069 31-736 limits assumed): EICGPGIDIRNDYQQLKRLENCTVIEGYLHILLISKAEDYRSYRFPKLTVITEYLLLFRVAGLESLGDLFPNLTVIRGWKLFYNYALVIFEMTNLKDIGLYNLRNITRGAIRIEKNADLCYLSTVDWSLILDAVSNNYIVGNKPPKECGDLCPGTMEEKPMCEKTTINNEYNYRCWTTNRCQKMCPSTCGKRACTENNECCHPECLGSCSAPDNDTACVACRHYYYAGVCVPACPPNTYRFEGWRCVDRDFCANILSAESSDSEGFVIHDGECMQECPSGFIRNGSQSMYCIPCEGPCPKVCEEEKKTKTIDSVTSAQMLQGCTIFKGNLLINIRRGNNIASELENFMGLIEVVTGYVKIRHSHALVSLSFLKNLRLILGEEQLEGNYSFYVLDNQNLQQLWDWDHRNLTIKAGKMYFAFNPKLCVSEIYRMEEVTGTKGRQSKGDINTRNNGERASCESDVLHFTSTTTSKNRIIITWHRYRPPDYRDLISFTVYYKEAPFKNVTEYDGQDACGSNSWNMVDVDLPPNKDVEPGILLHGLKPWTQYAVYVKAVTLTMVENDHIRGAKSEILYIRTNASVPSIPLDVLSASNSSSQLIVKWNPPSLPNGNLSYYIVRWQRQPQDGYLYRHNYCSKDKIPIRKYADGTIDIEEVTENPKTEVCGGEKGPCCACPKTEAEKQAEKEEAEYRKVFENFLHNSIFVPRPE
Chain of Insulin-like growth factor 1 receptor (P08069 741-1367 limits assumed): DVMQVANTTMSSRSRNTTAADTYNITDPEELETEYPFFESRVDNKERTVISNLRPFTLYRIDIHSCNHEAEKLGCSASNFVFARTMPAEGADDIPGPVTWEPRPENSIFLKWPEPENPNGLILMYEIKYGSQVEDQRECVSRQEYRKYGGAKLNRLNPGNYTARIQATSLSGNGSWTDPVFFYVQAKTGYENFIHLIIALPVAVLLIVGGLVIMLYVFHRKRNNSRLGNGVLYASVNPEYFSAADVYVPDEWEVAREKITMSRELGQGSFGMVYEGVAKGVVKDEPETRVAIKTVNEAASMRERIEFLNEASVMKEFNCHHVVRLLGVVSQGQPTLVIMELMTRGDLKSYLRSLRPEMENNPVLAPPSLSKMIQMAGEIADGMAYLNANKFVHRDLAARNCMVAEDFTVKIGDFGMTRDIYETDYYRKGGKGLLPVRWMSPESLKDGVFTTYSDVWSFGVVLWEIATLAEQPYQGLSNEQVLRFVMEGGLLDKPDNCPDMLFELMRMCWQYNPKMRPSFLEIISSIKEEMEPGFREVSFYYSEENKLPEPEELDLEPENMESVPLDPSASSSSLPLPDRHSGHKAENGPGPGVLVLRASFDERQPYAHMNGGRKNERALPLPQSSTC

[10] = biological target: MAP kinase-interacting serine/threonine-protein kinase 2 (Homo sapiens, UniProt Q9HBH9); type: functional
[11] = biological target: Death-associated protein kinase 3 (Homo sapiens, UniProt O43293); type: functional;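 also: measured as one member of a kinome-wide profiling panel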
[12] = biological target: Serine/threonine-protein kinase BRSK1 (Homo sapiens, UniProt Q8TDC3); type: functional;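 also: measured within a kinome-wide kinase panel, with the target listed as KIAA1811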
Chain of Serine/threonine-protein kinase BRSK1 (Q8TDC3 whole entry): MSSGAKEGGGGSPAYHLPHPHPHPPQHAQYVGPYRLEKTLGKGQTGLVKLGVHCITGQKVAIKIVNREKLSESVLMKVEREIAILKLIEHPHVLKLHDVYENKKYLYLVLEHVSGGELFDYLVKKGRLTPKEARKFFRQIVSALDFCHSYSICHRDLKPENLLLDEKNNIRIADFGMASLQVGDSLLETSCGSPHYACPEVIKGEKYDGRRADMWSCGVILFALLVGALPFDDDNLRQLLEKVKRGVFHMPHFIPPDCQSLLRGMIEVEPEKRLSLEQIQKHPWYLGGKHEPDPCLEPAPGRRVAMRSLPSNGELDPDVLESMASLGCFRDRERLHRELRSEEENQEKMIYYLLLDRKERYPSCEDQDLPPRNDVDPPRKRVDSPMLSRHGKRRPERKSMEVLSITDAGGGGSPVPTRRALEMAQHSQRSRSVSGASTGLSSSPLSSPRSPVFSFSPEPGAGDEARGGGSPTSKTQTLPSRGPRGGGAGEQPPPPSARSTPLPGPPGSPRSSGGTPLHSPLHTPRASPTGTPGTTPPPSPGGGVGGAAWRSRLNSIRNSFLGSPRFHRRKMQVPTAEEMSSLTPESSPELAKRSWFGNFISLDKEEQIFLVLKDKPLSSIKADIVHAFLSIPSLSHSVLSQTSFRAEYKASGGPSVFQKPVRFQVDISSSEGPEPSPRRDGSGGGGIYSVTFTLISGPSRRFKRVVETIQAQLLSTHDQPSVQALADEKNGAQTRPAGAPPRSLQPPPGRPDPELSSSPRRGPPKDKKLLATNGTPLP

[13] = biological target: Homeodomain-interacting protein kinase 2 (Homo sapiens, UniProt Q9H2X6); type: functional;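 also: measured within a kinome-wide kinase profiling panel, HIPK2 being one panel member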
[14] = biological target: cGMP-dependent protein kinase 1 (Homo sapiens, UniProt Q13976); type: functional;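 also: value from a kinome panel screen with PRKG1 as the panel member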
[15] = biological target: Maternal embryonic leucine zipper kinase (Homo sapiens, UniProt Q14680); type: functional
[16] = biological target: Phosphorylase b kinase gamma catalytic chain, liver/testis isoform (Homo sapiens, UniProt P15735); type: functional;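 also: PHKG2 measured as one member of a kinome-wide kinase panel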
[17] = biological target: Tyrosine-protein kinase receptor TYRO3 (Homo sapiens, UniProt Q06418); type: functional;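 also: TYRO3 value obtained as one member of a kinome-wide profiling panel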
[18] = biological target: Serine/threonine-protein kinase PLK1 (Homo sapiens, UniProt P53350); type: functional;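 also: PLK1 measured as one member of a kinome-wide profiling panel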
[19] = biological target: Tyrosine-protein kinase Fyn (Homo sapiens, UniProt P06241); type: functional
Chain of Tyrosine-protein kinase Fyn (P06241 whole entry): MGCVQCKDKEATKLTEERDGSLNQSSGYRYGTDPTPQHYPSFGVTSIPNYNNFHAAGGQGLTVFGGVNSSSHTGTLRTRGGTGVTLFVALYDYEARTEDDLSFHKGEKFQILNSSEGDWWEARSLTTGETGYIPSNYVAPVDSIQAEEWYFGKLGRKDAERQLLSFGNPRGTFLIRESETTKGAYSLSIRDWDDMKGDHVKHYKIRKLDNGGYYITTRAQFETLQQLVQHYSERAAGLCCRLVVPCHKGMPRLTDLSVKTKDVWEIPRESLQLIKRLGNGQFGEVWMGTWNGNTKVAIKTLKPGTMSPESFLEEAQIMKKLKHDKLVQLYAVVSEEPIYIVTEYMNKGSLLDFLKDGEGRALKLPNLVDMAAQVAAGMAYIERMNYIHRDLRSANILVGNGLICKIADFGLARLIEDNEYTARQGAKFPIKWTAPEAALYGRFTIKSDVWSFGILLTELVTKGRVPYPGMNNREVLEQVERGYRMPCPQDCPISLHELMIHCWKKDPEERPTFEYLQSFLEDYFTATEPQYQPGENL

[20] = biological target: RAC-alpha serine/threonine-protein kinase (Homo sapiens, UniProt P31749); type: functional;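 also: AKT1 affinity measured as one member of a kinome-wide kinase profiling panel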
Chain of RAC-alpha serine/threonine-protein kinase (P31749 whole entry): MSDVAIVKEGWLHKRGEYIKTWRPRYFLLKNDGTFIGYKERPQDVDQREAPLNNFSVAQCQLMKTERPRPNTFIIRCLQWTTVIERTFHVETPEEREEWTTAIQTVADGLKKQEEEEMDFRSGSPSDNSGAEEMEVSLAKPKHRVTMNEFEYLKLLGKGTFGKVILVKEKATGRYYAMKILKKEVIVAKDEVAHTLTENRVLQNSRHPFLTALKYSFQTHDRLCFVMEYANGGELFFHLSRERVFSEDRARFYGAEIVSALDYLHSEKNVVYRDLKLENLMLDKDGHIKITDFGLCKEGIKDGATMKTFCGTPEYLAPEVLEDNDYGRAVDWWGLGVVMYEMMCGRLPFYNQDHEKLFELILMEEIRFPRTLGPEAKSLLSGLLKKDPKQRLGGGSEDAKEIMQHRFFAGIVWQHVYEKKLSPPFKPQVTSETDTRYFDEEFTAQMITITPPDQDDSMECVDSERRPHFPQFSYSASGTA

[21] = biological target: Lymphokine-activated killer T-cell-originated protein kinase (Homo sapiens, UniProt Q96KB5); type: functional;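 also: value comes from a kinase panel screen in which TOPK was one of the panel members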
[22] = biological target: cAMP-dependent protein kinase catalytic subunit alpha (Homo sapiens, UniProt P17612); type: functional
[23] = biological target: Casein kinase I isoform gamma-1 (Homo sapiens, UniProt Q9HCP0); type: functional;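 also: measured as the CSNK1G1 member of a kinome profiling panel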
[24] = biological target: Calcium/calmodulin-dependent protein kinase type II subunit gamma (Homo sapiens, UniProt Q13555); type: functional
[25] = biological target: Serine/threonine-protein kinase N2 (Homo sapiens, UniProt Q16513); type: functional
[26] = biological target: Tyrosine-protein kinase Fer (Homo sapiens, UniProt P16591); type: functional;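 also: FER tested as one member of a kinome panel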
[27] = biological target: Serine/threonine-protein kinase PAK 1 (Homo sapiens, UniProt Q13153); type: functional
[28] = biological target: MAP kinase-activated protein kinase 3 (Homo sapiens, UniProt Q16644); type: functional;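 also: value comes from a kinome-wide profiling panel in which MAPKAPK3 is one of the panel members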
[29] = biological target: Dual specificity protein kinase CLK2 (Homo sapiens, UniProt P49760); type: functional
[30] = biological target: 3-phosphoinositide-dependent protein kinase 1 (Homo sapiens, UniProt O15530); type: functional;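 also: value comes from the Navigating the Kinome panel, PDPK1 member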
Chain of 3-phosphoinositide-dependent protein kinase 1 (O15530 whole entry): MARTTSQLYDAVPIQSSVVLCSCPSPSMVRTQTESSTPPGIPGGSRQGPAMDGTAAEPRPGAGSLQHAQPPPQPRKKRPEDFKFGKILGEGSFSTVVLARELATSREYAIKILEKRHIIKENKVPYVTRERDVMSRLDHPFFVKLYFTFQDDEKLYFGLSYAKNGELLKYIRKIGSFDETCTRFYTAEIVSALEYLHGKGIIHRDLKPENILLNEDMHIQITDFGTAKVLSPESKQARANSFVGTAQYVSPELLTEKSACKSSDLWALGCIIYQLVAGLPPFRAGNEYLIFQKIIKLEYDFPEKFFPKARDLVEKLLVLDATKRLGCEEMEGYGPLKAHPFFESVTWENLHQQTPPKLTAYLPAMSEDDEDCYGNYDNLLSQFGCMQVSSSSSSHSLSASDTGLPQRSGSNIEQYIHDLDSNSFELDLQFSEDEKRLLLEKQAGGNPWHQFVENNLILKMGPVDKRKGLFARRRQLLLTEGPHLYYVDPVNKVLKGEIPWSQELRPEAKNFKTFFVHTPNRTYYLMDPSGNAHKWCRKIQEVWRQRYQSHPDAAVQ

[31] = biological target: Cyclin-dependent kinase 1 (Homo sapiens, UniProt P06493); type: functional;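 also: Kinome-wide panel profiling, with the target listed as panel member CDC2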

Chain of Mitochondrial peptide methionine sulfoxide reductase (P54149 whole entry): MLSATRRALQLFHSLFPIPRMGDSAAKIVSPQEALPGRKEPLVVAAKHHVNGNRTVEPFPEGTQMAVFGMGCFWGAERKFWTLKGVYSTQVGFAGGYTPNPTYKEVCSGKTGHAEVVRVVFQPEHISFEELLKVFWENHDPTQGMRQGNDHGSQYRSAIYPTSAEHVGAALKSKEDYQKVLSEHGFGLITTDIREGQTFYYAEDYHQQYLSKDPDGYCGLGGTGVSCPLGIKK

O=C(COC(=O)c1ccc([N+](=O)[O-])s1)Nc1cccc(S(=O)(=O)/N=C2/CCCCCN2)c1
EC50 [1]: 70400 nM (inactive)

COc1ccc(C(C[N+](=O)[O-])c2c(C)[nH]n(-c3ccccc3)c2=O)cc1 (configuration not stated)
IC50 [2]: 6910 nM (active)

Oc1c2ccccc2c2c3c(cccc13)N=N2 [SP-600125]
Ki (SRSF protein kinase 1): > 7940 nM (inactive)
Ki [3]: 100 nM (active)
Ki [4]: > 1260 nM (inactive)
Ki [5]: 2000 nM (active)
Ki [6]: 15.8 nM (active)
Ki [7]: 63.1 nM (active)
Ki [8]: > 1580 nM (inactive)
Ki [9]: > 2000 nM (inactive)
Ki [10]: 316 nM (active)
Ki [11]: 398 nM (active)
Ki [12]: 794 nM (active)
Ki [13]: 200 nM (active)
Ki [14]: > 2000 nM (inactive)
Ki [15]: 398 nM (active)
Ki [16]: 631 nM (active)
Ki [17]: 1000 nM (active)
Ki [18]: > 7940 nM (inactive)
Ki [19]: > 794 nM (inactive)
Ki [20]: > 7940 nM (inactive)
Ki [21]: 1000 nM (active)
Ki [22]: > 7940 nM (inactive)
Ki [23]: > 6310 nM (inactive)
Ki [24]: 1580 nM (active)
Ki [25]: > 7940 nM (inactive)
Ki [26]: 50.1 nM (active)
Ki [27]: > 10000 nM (inactive)
Ki [28]: > 10000 nM (inactive)
Ki [29]: 631 nM (active)
Ki [30]: 631 nM (active)
Ki [31]: 1000 nM (active)
